The source made the active and inactive calls. The rule behind the calls is not given here.
Key:
[1] = molecular target: T1, C-X-C chemokine receptor type 4 (Homo sapiens, UniProt P61073); experiment: Antagonist activity at CXCR4 in human CCRF-CEM cells assessed as inhibition of anti-CXCR4 binding preincubated with compound for 45 mins followed by anti-CXCR4 PE antibody addition and measured after 30 mins by fluorescence based competitive binding assay; assay type: functional, cell-based
[2] = molecular target: T1, C-X-C chemokine receptor type 4; experiment: Displacement of 125I-CXCL12 from CXCR4 in human CCRF-CEM cells measured after 1 hr by competitive binding assay; assay type: cell-based
[3] = Stability of the compound assessed as parent compound remaining in PBS buffer at pH 7.4 at 10 uM measured after 8 hr in presence of glutathione by RP-HPLC analysis; assay type: physicochemical; conditions: PBS buffer with glutathione, read-out: Stability
[4] = Stability of the compound assessed as parent compound remaining in PBS buffer at pH 7.4 at 10 uM measured after 1 hr in presence of glutathione by RP-HPLC analysis; assay type: physicochemical; conditions: PBS buffer with glutathione, read-out: Stability
[5] = molecular target: T1, C-X-C chemokine receptor type 4; experiment: Agonist activity at CXCR4 (unknown origin) transfected with CHO cells cotransfected with CXCR4-GFP assessed as induction of CXCR4 internalization at 0.1 to 1 uM incubated for 45 mins by DAPI staining based microscopy analysis; assay type: functional, cell-based; conditions: dose 0.1-1 µM
[6] = molecular target: T1, C-X-C chemokine receptor type 4; experiment: Agonist activity at CXCR4 in human CEM cells assessed as induction of CXCR4 internalization at 0.1 to 1 uM incubated for 45 mins by flow cytometry analysis; assay type: functional, cell-based; conditions: dose 0.1-1 µM
[7] = molecular target: T1, C-X-C chemokine receptor type 4; experiment: Antagonist activity at CXCR4 in human CEM cells assessed as inhibition of CXCL12-induced CXCR4 internalization at 0.1 to 1 uM preincubated for 45 mins followed by CXCL12 stimulation and measured after 30 mins by flow cytometry analysis; assay type: functional, cell-based; conditions: filed as antagonist, dose 0.1-1 µM, time 75.0 min
[8] = molecular target: T2, Atypical chemokine receptor 3 (Homo sapiens, UniProt P25106); experiment: Binding affinity to CXCR7 (unknown origin) overexpressing human MCF7 cells at upto 10 uM by flow cytometry analysis; assay type: cell-based
T2 sequence (P25106 whole entry): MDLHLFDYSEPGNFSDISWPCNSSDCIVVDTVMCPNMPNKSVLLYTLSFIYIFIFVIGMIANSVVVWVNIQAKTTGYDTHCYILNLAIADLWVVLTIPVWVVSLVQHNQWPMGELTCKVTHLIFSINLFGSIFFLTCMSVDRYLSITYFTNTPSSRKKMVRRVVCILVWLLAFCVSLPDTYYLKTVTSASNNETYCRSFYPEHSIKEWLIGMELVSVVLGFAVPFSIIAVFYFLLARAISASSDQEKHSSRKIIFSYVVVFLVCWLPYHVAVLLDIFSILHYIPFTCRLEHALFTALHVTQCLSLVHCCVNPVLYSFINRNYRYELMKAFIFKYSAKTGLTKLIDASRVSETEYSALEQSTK

[9] = tested on: CCRF-CEM; experiment: Inhibition of CXCL12-induced cell migration in human CCRF-CEM cells at 0.01 to 10 uM measured after 6 hrs by DAPI staining based analysis; assay type: functional; conditions: dose 0.01-10 µM
[10] = molecular target: T2, Atypical chemokine receptor 3; experiment: Inhibition of CXCR7 (unknown origin) overexpressing human MCF7 cells at upto 10 uM by flow cytometry analysis relative to control; assay type: cell-based
[11] = Stability of the compound assessed as parent compound remaining in PBS buffer at pH 7.4 at 10 uM measured upto 8 hr in presence of glutathione by RP-HPLC analysis; assay type: physicochemical; conditions: pH 7.4, 8 h
[12] = molecular target: T1, C-X-C chemokine receptor type 4; experiment: Antagonist activity at CXCR4 (unknown origin) transfected with CHO cells cotransfected with CXCR4-GFP assessed as inhibition of CXCL12 induced CXCR4 internalization at upto 1 uM preincubated for 45 mins followed by CXCL12 stimulation and measured after 30 to 90 mins by DAPI staining based microscopy analysis; assay type: functional, cell-based; conditions: time 75-135 min
[13] = molecular target: T2, Atypical chemokine receptor 3; experiment: Binding affinity to CXCR7 (unknown origin) overexpressing human MCF7 cells by flow cytometry analysis; assay type: cell-based
[14] = tested on: CCRF-CEM; experiment: Inhibition of CXCL12-induced cell migration in human CCRF-CEM cells measured after 6 hrs by DAPI staining based analysis; assay type: functional; conditions: dose 0.01-10 µM

T1 sequence (P61073 whole entry): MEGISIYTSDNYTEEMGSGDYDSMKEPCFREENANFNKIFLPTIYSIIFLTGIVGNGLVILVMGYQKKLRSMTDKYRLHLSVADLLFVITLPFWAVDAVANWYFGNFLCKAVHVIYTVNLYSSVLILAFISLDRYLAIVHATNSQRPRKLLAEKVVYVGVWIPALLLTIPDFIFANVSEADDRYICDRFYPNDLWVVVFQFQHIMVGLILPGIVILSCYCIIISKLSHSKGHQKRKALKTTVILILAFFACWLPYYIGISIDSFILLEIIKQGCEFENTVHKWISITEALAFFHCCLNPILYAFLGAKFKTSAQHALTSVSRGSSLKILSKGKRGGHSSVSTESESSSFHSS

**Q.** For `CC(=O)N[C@@H](CCCNC(=N)N)C(=O)N[C@@H](C)C(=O)N[C@@H]1CCCNC(=O)[C@H](CC(=O)O)NC(=O)[C@H](Cc2c[nH]cn2)NC(=O)[C@H](Cc2ccc3ccccc3c2)NC(=O)[C@H](CCCNC(=N)N)NC1=O`, which IC50 ([1]; ccrf-cem) is on record?
**A.** 0.96 µM

**Q.** With `CC(=O)N[C@@H](CCCNC(=N)N)C(=O)N[C@@H](C)C(=O)N[C@@H]1CNC(=O)[C@H](CCC(C)C)NC(=O)[C@H](Cc2c[nH]cn2)NC(=O)[C@H](Cc2ccc3ccccc3c2)NC(=O)[C@H](CCCNC(=N)N)NC1=O` as the compound, how does the IC50 ([1]; ccrf-cem) read?
**A.** 0.113 µM

**Q.** With `CC(=O)N[C@@H](CCCNC(=N)N)C(=O)N[C@@H](C)C(=O)N[C@@H]1CCCCNC(=O)[C@H](CCC(=O)O)NC(=O)[C@H](Cc2c[nH]cn2)NC(=O)[C@H](Cc2ccc3ccccc3c2)NC(=O)[C@H](CCCNC(=N)N)NC1=O` as the compound, how does the IC50 ([1]; ccrf-cem) read?
**A.** > 10 µM

**Q.** Which IC50 ([1]; ccrf-cem) does the source give for `CC(=O)N[C@@H](CCCNC(=N)N)C(=O)N[C@@H](C)C(=O)N[C@@H]1CCCCNC(=O)[C@H](CC(=O)O)NC(=O)[C@H](Cc2c[nH]cn2)NC(=O)[C@H](Cc2ccc3ccccc3c2)NC(=O)[C@H](CCCNC(=N)N)NC1=O` here?
**A.** 1.71 µM

**Q.** For `CC(=O)N[C@@H](CCCNC(=N)N)C(=O)N[C@@H](C)C(=O)N[C@@H]1CCNC(=O)[C@H](CCC(=O)O)NC(=O)[C@H](Cc2c[nH]cn2)NC(=O)[C@H](Cc2ccc3ccccc3c2)NC(=O)[C@H](CCCNC(=N)N)NC1=O`, which IC50 ([1]; ccrf-cem) is on record?
**A.** 0.78 µM

**Q.** For `CC(=O)N[C@@H](CCCNC(=N)N)C(=O)N[C@@H](C)C(=O)N[C@@H]1CCn2nncc2C[C@@H](C(=O)O)NC(=O)[C@H](Cc2c[nH]cn2)NC(=O)[C@H](Cc2ccc3ccccc3c2)NC(=O)[C@H](CCCNC(=N)N)NC1=O`, which IC50 ([2]; ccrf-cem) is on record?
**A.** 0.03 µM

**Q.** For `CC(=O)N[C@@H](CCCNC(=N)N)C(=O)N[C@@H](C)C(=O)N[C@@H]1CSSC(C)(C)[C@@H](C(=O)O)NC(=O)[C@H](Cc2cnc[nH]2)NC(=O)[C@H](Cc2ccc3ccccc3c2)NC(=O)[C@H](CCCNC(=N)N)NC1=O`, which remaining at 8 h, 10 µM [3] is on record?
**A.** ~52%

**Q.** What about the IC50 [1] of the same compound?
**A.** 0.001 µM

**Q.** What about the remaining at 1 h, 10 µM [4] of the same compound?
**A.** ~88%

**Q.** And the IC50 [2]?
**A.** 0.0047 µM

**Q.** Which Activity [5] does the source give for `CC(=O)N[C@@H](CCCNC(=N)N)C(=O)N[C@@H](C)C(=O)N[C@@H]1CSSC(C)(C)[C@H](C(=O)O)NC(=O)[C@H](Cc2c[nH]cn2)NC(=O)[C@H](Cc2ccc3ccccc3c2)NC(=O)[C@H](CCCNC(=N)N)NC1=O` here?
**A.** inactive

**Q.** What about the Activity [6] of the same compound?
**A.** inactive

**Q.** And the Activity [7]?
**A.** Active

**Q.** What about the Activity [8] of the same compound?
**A.** inactive

**Q.** What about the inhibition [9] of the same compound?
**A.** Active

**Q.** Which IC50 ([1]; ccrf-cem) does the source give for `CC(=O)N[C@@H](CCCNC(=N)N)C(=O)N[C@@H](C)C(=O)N[C@@H]1CCNC(=O)[C@H](CC(=O)O)NC(=O)[C@H](Cc2c[nH]cn2)NC(=O)[C@H](Cc2ccc3ccccc3c2)NC(=O)[C@H](CCCNC(=N)N)NC1=O` here?
**A.** 0.2 µM

**Q.** With `CC(=O)N[C@@H](CCCNC(=N)N)C(=O)N[C@@H](C)C(=O)N[C@@H]1CNC(=O)[C@H](Cc2ccccc2)NC(=O)[C@H](Cc2c[nH]cn2)NC(=O)[C@H](Cc2ccc3ccccc3c2)NC(=O)[C@H](CCCNC(=N)N)NC1=O` as the compound, how does the IC50 ([1]; ccrf-cem) read?
**A.** 0.344 µM

**Q.** Which inhibition [10] does the source give for `CC(=O)N[C@@H](CCCNC(=N)N)C(=O)N[C@@H](C)C(=O)N[C@H]1CNC(=O)[C@@H](CCC(=O)O)NC(=O)[C@H](Cc2c[nH]cn2)NC(=O)[C@H](Cc2ccc3ccccc3c2)NC(=O)[C@H](CCCNC(=N)N)NC1=O` here?
**A.** 37%

**Q.** And the Stability [11]?
**A.** Stable

**Q.** And the IC50 [1]?
**A.** 0.05 µM

**Q.** What about the Activity [12] of the same compound?
**A.** inactive

**Q.** What about the IC50 [13] of the same compound?
**A.** > 10 µM

**Q.** And the inhibition [14]?
**A.** Dose-Dependent Effect

**Q.** And the Activity [5]?
**A.** inactive

**Q.** What about the Activity [6] of the same compound?
**A.** inactive

**Q.** What about the IC50 [2] of the same compound?
**A.** 0.048 µM

**Q.** Which IC50 ([2]; ccrf-cem) does the source give for `CC(=O)N[C@@H](CCCNC(=N)N)C(=O)N[C@@H](C)C(=O)N[C@@H]1Cn2cc(nn2)C[C@@H](C(=O)O)NC(=O)[C@H](Cc2c[nH]cn2)NC(=O)[C@H](Cc2ccc3ccccc3c2)NC(=O)[C@H](CCCNC(=N)N)NC1=O` here?
**A.** 0.036 µM

**Q.** For `CC(=O)N[C@@H](CCCNC(=N)N)C(=O)N[C@@H](C)C(=O)N[C@@H]1CNC(=O)[C@H](CCC(=O)O)NC(=O)[C@H](Cc2c[nH]cn2)NC(=O)[C@H](Cc2ccc3ccccc3c2)NC(=O)[C@H](CCCNC(=N)N)NC1=O`, which IC50 [1] is on record?
**A.** > 10 µM

**Q.** For `CC(=O)N[C@@H](CCCNC(=N)N)C(=O)N[C@@H](C)C(=O)N[C@H]1CNC(=O)[C@@H](CC(=O)O)NC(=O)[C@H](Cc2c[nH]cn2)NC(=O)[C@H](Cc2ccc3ccccc3c2)NC(=O)[C@H](CCCNC(=N)N)NC1=O`, which IC50 [1] is on record?
**A.** 0.187 µM

**Q.** Which IC50 ([1]; ccrf-cem) does the source give for `CC(=O)N[C@@H](CCCNC(=N)N)C(=O)N[C@@H](C)C(=O)N[C@@H]1CCCNC(=O)[C@H](CCC(=O)O)NC(=O)[C@H](Cc2c[nH]cn2)NC(=O)[C@H](Cc2ccc3ccccc3c2)NC(=O)[C@H](CCCNC(=N)N)NC1=O` here?
**A.** > 10 µM

**Q.** With `CC(=O)N[C@@H](CCCNC(=N)N)C(=O)N[C@@H](C)C(=O)N[C@@H]1CNC(=O)[C@H](CCC(N)=O)NC(=O)[C@H](Cc2c[nH]cn2)NC(=O)[C@H](Cc2ccc3ccccc3c2)NC(=O)[C@H](CCCNC(=N)N)NC1=O` as the compound, how does the IC50 ([1]; ccrf-cem) read?
**A.** 0.243 µM

**Q.** Which IC50 [1] does the source give for `CC(=O)N[C@@H](CCCNC(=N)N)C(=O)N[C@@H](C)C(=O)N[C@@H]1CNC(=O)[C@@H](CC(=O)O)NC(=O)[C@H](Cc2c[nH]cn2)NC(=O)[C@H](Cc2ccc3ccccc3c2)NC(=O)[C@H](CCCNC(=N)N)NC1=O` here?
**A.** 0.1 µM

Source: ChEMBL document CHEMBL5608204, “Disulfide bond replacement with non-reducible side chain to tail macrolactamization for the development of potent and selective CXCR4 peptide antagonists endowed with flanking binding sites” (Eur J Med Chem, 2024)
